Test results: PubChem BioAssay (NCI)
Where “and” joins values, the source holds several entries; their conditions need not be identical. Equal values may be shown once.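 The compound was tested at five concentrations on cells cultured in 96-well plates, with a 48-hour exposure period. At the GI50, growth is halved. At the TGI there is no net growth.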

Assays:
Experiment in all cases: NCI anticancer screen, dose series, 48 h
[1] = tested on: BT-549 breast
[2] = tested on: UACC-62 melanoma
[3] = tested on: M14 melanoma
[4] = tested on: TK-10 renal
[5] = tested on: RPMI-8226 leukemia
[6] = tested on: MALME-3M melanoma
[7] = tested on: HOP-92 NSCLC
[8] = tested on: NCI-H226 lung
[9] = tested on: HL-60(TB) leukemia
[10] = tested on: MDA-MB-435

SMILES	TGI [1] [µM]	TGI [2]	TGI [3] [µM]	TGI [4] [µM]	TGI [5] [µM]	TGI [6] [µM]	TGI [7]	TGI [8] [µM]	TGI [9] [µM]	TGI [10] [µM]	GI50 [2] [nM]	GI50 [7] [nM]
CCOC(=O)C1CCCCc2sc(N)c(C#N)c21 (configuration not stated)	> 100	> 100 µM	> 100	> 100	> 100	> 100	> 100 µM	> 100	> 100	–	–	–
COc1cccc(CN(C(=O)/C=C\Sc2ccccc2)C(C)(C)C)c1	> 100	> 100 µM	> 100	> 100	–	–	70.8 µM	> 100	> 100	> 100	–	–
O=[N+]([O-])/C=C/c1cn(CCCCCn2cc(/C=C/[N+](=O)[O-])c3ccccc32)c2ccccc12	6.72	31.5 µM	15.1	5.37	> 100	5.95	67 µM	4.36	2.5	–	–	–
[N-]=[N+]=C(C(=O)C(=[N+]=[N-])C(=O)c1ccccc1)C(=O)c1ccccc1	> 100	> 100 µM	> 100	> 100	> 100	> 100	–	–	> 100	> 100	–	–
Cc1cc2occ(-c3ccc(Cl)cc3)c2c(=O)o1	–	> 100 µM	> 100	> 100	> 100	> 100	> 100 µM	> 100	> 100	–	–	–
Cc1cc(S(=O)(=O)O)c(NC(=O)c2oc3cc(O)ccc3c(=O)c2C)cc1Cl	> 100	> 100 µM	> 100	> 100	> 100	> 100	–	> 100	–	> 100	–	–
O=S1(=O)OCCOS(=O)(=O)C1Cc1nc2ccccc2[nH]1	–	–	> 100	> 100	> 100	> 100	> 100 µM	–	88.4	> 100	–	–
CC1(C)CCC2(C(=O)OC3OC(CO)C(O)C(O)C3O)CCC3(CO)C(=CCC4C5(C)CC(O)C(O)C(C)(C(=O)OC6OC(CO)C(O)C(O)C6O)C5CCC43C)C2C1 (configuration not stated)	> 100	> 100 µM	> 100	> 100	–	> 100	> 100 µM	> 100	> 100	> 100	–	–
CC(=O)NC1=C(NCC(C)C)C(=O)c2ccccc2C1=O	–	34.7 µM	33.2	40.9	> 100	34.2	28.3 µM	29.5	7.32	–	–	–
Cc1ccc(S(=O)(=O)N/N=C2\C3CC4CC(C3)C2C4)cc1 (configuration not stated)	> 100	> 100 µM	> 100	> 100	> 100	> 100	–	> 100	> 100	> 100	–	–
C=C1CC(Cn2cc(Br)c(=O)[nH]c2=O)(c2ccc(-c3ccccc3)cc2)OC1=O (configuration not stated)	3.31	2.45 µM	3.12	0.842	0.574	3.06	0.113 µM	4.31	–	2.36	–	–
O=C1/C(=C\c2cccc(Oc3ccccc3)c2)SC(c2ccccc2)N1c1cccc([N+](=O)[O-])c1 (configuration not stated)	> 100	> 100 µM	> 100	> 100	> 100	> 100	> 100 µM	> 100	–	> 100	–	–
Cc1cc2n([O-])cccc-2[n+](=O)c1	–	> 100 µM	> 100	> 100	> 100	> 100	> 100 µM	> 100	> 100	–	–	–
CC(C)(C)CC(C)(C)c1ccc(OCCOCC[N+](C)(C)Cc2ccccc2)cc1	–	2.09 µM and 2.67 µM	6.11	17.3	3.83	3.64	2.27 µM and 4.76 µM	15.7	6.31	–	678	940
C/C(=C\Cc1cc(O)ccc1O)CCc1c(C)cc(O)c(C=O)c1C	–	–	63.1	> 100	> 100	53.8	35.3 µM	78.5	> 100	–	–	–
O=C(OCc1ccccc1C1CSCSC1)c1cc(C(=O)OCc2ccccc2C2CSCSC2)c(C(=O)OCc2ccccc2C2CSCSC2)cc1C(=O)OCc1ccccc1C1CSCSC1	–	> 100 µM	> 100	> 100	> 100	> 100	> 100 µM	> 100	> 100	–	–	–
COC(=O)/C=C/c1ccc2c(c1)CC1(Cc3ccccc3C1)C2	–	> 100 µM	> 100	> 100	> 100	> 100	> 100 µM	> 100	67.3	> 100	–	–
COc1ccc(C2=C(OC(=O)N(C)C)c3cccn3-c3cc(Cl)ccc3S2)cc1	–	> 10 µM	> 10	> 10	> 10	> 10	> 10 µM	–	> 10	> 10	–	–
COc1ccc(-c2c3ccccc3c(-c3ccc(OCCCCCBr)cc3)c3ccccc23)cc1	–	> 100 µM	> 100	> 100	> 100	> 100	> 100 µM	> 100	> 100	–	–	–
CC1(C)[C@@H]2CC[C@@]1(C)[C@H](O)[C@@H]2SCc1ccccc1	–	22.2 µM	30.1	57.8	> 100	–	28.7 µM	39.4	54.3	33.2	–	–
CC(=O)CC1(C)OC(N)=C(C#N)C1(C#N)C#N (configuration not stated)	–	> 100 µM	> 100	> 100	> 100	> 100	> 100 µM	> 100	–	> 100	–	–
CC(=O)O[C@H]1C(=O)N(c2cc3c4ccccc4ccc3c3ccccc23)[C@@H]1c1ccccc1	–	24 µM	23.1	47.1	6.77	54.1	45.7 µM	40.3	–	5.68	–	–
CC1=C2C(=O)c3ccccc3C(=O)[C@H]2C[C@@H](N2CCCCCC2=O)O1	–	37.4 µM	28.8	37.7	35.4	25.5	36 µM	> 100	46.3	29.7	–	–
